According to the NIST ThermoML archive (doi:10.1021/je020067x):

How the values were obtained:
[1] = xn = mol fraction of the nth substance listed; conditions: 303.15 K, 101.33 kPa, Liquid; for viscosity: Capillary tube (Ostwald / Ubbelohde) method; for mass density: Vibrating tube method
[2] = 303.15 K, 101.33 kPa, Liquid; for viscosity: Capillary tube (Ostwald / Ubbelohde) method; for mass density: Vibrating tube method

ClC(Cl)(Cl)Cl [tetrachloromethane] + ClCCl
[1]
Conditions	mass density [kg/m3]	viscosity [mPa·s]
x1 = 0.0375	1321.5	0.4008
x1 = 0.0622	1330.4	0.4061
x1 = 0.0791	1336.4	0.4097
x1 = 0.0889	1339.9	0.412
x1 = 0.1254	1352.4	0.421
x1 = 0.2047	1378.4	0.441
x1 = 0.2305	1386.5	0.4479
x1 = 0.297	1406.7	0.4669
x1 = 0.3695	1427.7	0.4897
x1 = 0.4985	1462.5	0.5369
x1 = 0.4986	1462.5	0.5374
x1 = 0.4997	1462.8	0.5375
x1 = 0.5631	1478.9	0.564
x1 = 0.609	1490.1	0.5853
x1 = 0.6845	1508	0.6223
x1 = 0.8006	1533.9	0.6894
x1 = 0.8032	1534.5	0.6915
x1 = 0.8652	1547.7	0.7331
x1 = 0.9279	1560.7	0.7792
x1 = 0.9677	1568.6	0.8116

ClCCl [dichloromethane] + ClC(Cl)Cl
[1]
Conditions	mass density [kg/m3]	viscosity [mPa·s]
x1 = 0.0633	1462.3	0.504
x1 = 0.1191	1454.8	0.4976
x1 = 0.1924	1444.7	0.4892
x1 = 0.3101	1427.8	0.4741
x1 = 0.3607	1420.3	0.4686
x1 = 0.4299	1409.7	0.4602
x1 = 0.5221	1395.1	0.4501
x1 = 0.6464	1374.3	0.4352
x1 = 0.6833	1367.8	0.4301
x1 = 0.74	1357.8	0.4236
x1 = 0.7979	1347.1	0.4163
x1 = 0.8681	1333.9	0.4083
x1 = 0.9034	1327	0.404
x1 = 0.9358	1320.6	0.4005

ClCCl [dichloromethane]
[2]
Conditions	mass density [kg/m3]	viscosity [mPa·s]
–	1307.6	0.3929

ClC(Cl)(Cl)Cl [tetrachloromethane] + ClC(Cl)Cl
[1]
Conditions	mass density [kg/m3]	viscosity [mPa·s]
x1 = 0.0591	1477.2	0.5216
x1 = 0.075	1479	0.5248
x1 = 0.1297	1485.1	0.5343
x1 = 0.2236	1495.3	0.5538
x1 = 0.2777	1501.2	0.5658
x1 = 0.3416	1508.1	0.5811
x1 = 0.434	1517.9	0.6041
x1 = 0.4886	1523.6	0.6201
x1 = 0.5736	1532.5	0.6486
x1 = 0.6646	1541.8	0.6807
x1 = 0.7747	1552.9	0.7256
x1 = 0.8186	1557.3	0.7458
x1 = 0.8904	1564.4	0.7804
x1 = 0.9305	1568.3	0.8017

ClC(Cl)(Cl)Cl [tetrachloromethane]
[2]
Conditions	mass density [kg/m3]	viscosity [mPa·s]
–	1575	0.8403

ClC(Cl)Cl [trichloromethane]
[2]
Conditions	mass density [kg/m3]	viscosity [mPa·s]
–	1470.5	0.5118
